Twelve molecules from ChEMBL document CHEMBL4417626, “Post-Translational Regulation of Catalytic Activities of Cytochrome P450 46A1 and Uses Thereof” (2017) can be followed below.

The target of series [1] is T1, Cholesterol 24-hydroxylase (Homo sapiens, UniProt Q9Y6A2). The series is described as follows: Binding affinity to full-length recombinant human CYP46A1 by spectral binding study.
Target sequence in this assay (Q9Y6A2 whole entry, looked up): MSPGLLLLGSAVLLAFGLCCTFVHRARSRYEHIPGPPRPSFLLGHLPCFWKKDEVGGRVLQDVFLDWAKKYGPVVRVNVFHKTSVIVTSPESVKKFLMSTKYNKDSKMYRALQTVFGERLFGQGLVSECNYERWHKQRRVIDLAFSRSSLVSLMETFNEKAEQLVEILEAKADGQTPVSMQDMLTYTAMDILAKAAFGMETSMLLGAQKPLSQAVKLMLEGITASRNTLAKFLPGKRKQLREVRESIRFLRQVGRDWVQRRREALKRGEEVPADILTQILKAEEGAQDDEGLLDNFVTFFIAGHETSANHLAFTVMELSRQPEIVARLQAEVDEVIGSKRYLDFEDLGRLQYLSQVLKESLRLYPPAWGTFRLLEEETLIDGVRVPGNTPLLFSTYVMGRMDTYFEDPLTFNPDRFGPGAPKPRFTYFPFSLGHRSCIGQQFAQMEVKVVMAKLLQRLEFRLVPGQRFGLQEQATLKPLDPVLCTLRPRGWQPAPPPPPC
Series [2] deals with T1, Cholesterol 24-hydroxylase. The series is described as follows: Stimulation of full-length recombinant human CYP46A1 assessed as cholesterol hydroxylation at 43 uM using cholesterol as substrate in presence of NADPH cytochrome P450 oxidoreductase by gas chromatography-mass spectrometry.
Target sequence in this assay (Q9Y6A2 whole entry, looked up): as above
For series [3], the target named is T2, Sterol 26-hydroxylase, mitochondrial (Homo sapiens) (UniProt Q02318).
T2 sequence (whole entry): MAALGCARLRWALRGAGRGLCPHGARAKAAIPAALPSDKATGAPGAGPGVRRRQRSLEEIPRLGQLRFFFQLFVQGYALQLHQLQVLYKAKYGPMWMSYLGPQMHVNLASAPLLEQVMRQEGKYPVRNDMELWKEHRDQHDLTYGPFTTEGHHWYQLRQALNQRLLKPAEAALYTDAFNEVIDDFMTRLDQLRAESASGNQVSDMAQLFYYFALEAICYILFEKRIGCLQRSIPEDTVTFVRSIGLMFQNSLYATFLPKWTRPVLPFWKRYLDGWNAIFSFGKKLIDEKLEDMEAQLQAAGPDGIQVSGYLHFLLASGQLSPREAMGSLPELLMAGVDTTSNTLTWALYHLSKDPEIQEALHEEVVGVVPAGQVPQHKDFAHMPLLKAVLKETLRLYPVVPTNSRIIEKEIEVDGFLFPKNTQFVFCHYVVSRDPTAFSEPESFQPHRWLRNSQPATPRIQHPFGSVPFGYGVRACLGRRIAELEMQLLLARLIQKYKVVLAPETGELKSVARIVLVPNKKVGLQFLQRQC
The series is described as follows: Binding affinity to full-length recombinant human CYP27A1 assessed as induction of spectral shift up to 100 uM by spectral binding study.

Series [4] deals with Mus musculus. The series is described as follows: In-vivo inhibition of CYP46A1 in C57/B6J mouse plasma assessed as reduction in 24S-hydroxy cholesterol at 60 mg/kg, ip dosed qd for 5 days by isotope dilution mass-spectrometry relative to control. As to conditions: 120 h. It is filed as functional.
The species named for series [5] is Mus musculus. As to conditions: C57/B6J, 60 mg/kg.
The species named for series [6] is Mus musculus. The conditions noted are these: C57/B6J, 75 mg/kg.
Series [7] concerns the target T1, Cholesterol 24-hydroxylase. Put plainly: Binding affinity to active site of full-length recombinant human CYP46A1 assessed as induction of type-II spectral response with minimum at 413 nm and maximum at 434 nm by spectral binding study.
Target sequence in this assay (Q9Y6A2 whole entry, looked up): as the sequence (Q9Y6A2 whole entry, looked up) above
Series [8] deals with T3, Cholesterol side-chain cleavage enzyme, mitochondrial (Bos taurus, UniProt P00189).
T3 sequence (P00189 whole entry): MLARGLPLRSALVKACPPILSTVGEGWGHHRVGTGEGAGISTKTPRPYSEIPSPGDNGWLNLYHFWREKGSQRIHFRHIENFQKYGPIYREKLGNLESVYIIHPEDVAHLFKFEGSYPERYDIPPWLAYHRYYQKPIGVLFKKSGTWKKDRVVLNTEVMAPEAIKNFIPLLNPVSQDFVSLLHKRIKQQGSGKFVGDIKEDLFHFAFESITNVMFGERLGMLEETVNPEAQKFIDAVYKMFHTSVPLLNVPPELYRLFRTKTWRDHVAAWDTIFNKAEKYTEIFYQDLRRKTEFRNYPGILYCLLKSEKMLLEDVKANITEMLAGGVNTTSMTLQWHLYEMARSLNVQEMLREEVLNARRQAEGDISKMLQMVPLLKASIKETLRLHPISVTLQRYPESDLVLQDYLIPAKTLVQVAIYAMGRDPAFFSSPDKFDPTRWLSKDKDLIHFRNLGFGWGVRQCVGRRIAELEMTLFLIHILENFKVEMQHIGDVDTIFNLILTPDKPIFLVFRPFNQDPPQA
The series is described as follows: Binding affinity to active site of bovine CYP11A1 assessed as induction of type-II spectral response by spectral binding study. As to conditions: cattle.

The species named for series [9] is Mus musculus. As to conditions: C57/B6J, 60 mg/kg. The source holds these as a separate data set.
Description: In-vivo inhibition of CYP46A1 in C57/B6J mouse brain assessed as reduction in lathosterol level at 60 mg/kg, ip dosed qd for 5 days by isotope dilution mass-spectrometry relative to control
Series [10] has as its target T1, Cholesterol 24-hydroxylase. Put plainly: Inhibition of full-length recombinant human CYP46A1 assessed as cholesterol hydroxylation using cholesterol as substrate in presence of NADPH cytochrome P450 oxidoreductase by gas chromatography-mass spectrometry.
Target sequence in this assay (Q9Y6A2 whole entry): as the sequence (Q9Y6A2 whole entry, looked up) above

Active and inactive are the calls of the source. The rule behind the calls is not given here.

Take `CC(=O)[C@H]1CC[C@H]2[C@@H]3CC=C4C[C@@H](O)CC[C@]4(C)[C@H]3CC[C@]12C`: the result in series [1] was inactive.

In the case of `CCCCOc1ccc(NC(C)=O)cc1`, in series [2], the Activity was determined as 107%.

Consider `CC(=O)Nc1cccc(O)c1`, for which the Activity in series [2] was determined as 87%. `CCOc1ccc(NC(=O)CC)cc1`: the Activity in series [2] came out at 101%. For `C[C@@H](c1ncncc1F)[C@](O)(Cn1cncn1)c1ccc(F)cc1F` [VORICONAZOLE], in [3], the outcome was inactive. The inhibition in vivo at 60 mg/kg with Mus musculus [4] turned out to be 30%. In addition, the inhibition entry in the series listed under Mus musculus [5], in the series filed under Mus musculus [6] and in the series filed under Mus musculus [9] was “Active” in each case. In addition, in series [7], the result was Active. Further, the result in series [8] was Active.

As for `COc1ccc(NC(C)=O)cc1`, the Activity in series [2] turned out to be 100%. For `CC(=O)Nc1ccc(CO)cc1`, in series [2], the Activity was 112%. The same measure, in the same setting: then `CC(=O)Nc1ccccc1O`, with 103%; and `CC(=O)Nc1ccc(C)cc1`, with 112%; and `CCOc1ccc(N)cc1`, with 50%.

For `CC(=O)Nc1ccc(O)cc1`, in series [2], the Activity was 132%. As to `CC(=O)[C@H]1CC[C@H]2[C@@H]3CC=C4C[C@@H](OS(=O)(=O)O)CC[C@]4(C)[C@H]3CC[C@]12C`, the inhibitory constant (Ki) in [10] was determined as 2500 nM.
